Data set [1] concerns human PKK mRNA. The experiment in a line: Antisense inhibition of human PKK mRNA in HepaRG cells, 1,000 nM, MOE/deoxy/cEt oligonucleotides (Example 3). The data set is classed as cell-based. As to the method: Additional antisense oligonucleotides were designed targeting a PKK nucleic acid and were tested for their effects on PKK mRNA in vitro.
The chimeric antisense oligonucleotides in the tables below were designed as deoxy, MOE and cEt gapmers. The gapmers are 16 nucleosides in length wherein the nucleoside have either a MOE sugar modification, a cEt sugar modification, or a deoxy modification. The ‘Chemistry’ column describes the sugar modifications of each oligonucleotide. ‘k’ indicates an cEt sugar modification; the number indicates the number of deoxynucleosides; otherwise, indicates a deoxynucleoside; and ‘e’ indicates a 2′-O-methoxyethyl modification. The internucleoside linkages throughout each gapmer are phosphorothioate linkages. All cytosine residues throughout each oligonucleotide are 5-methylcytosines. “Start site” indicates the 5′-most nucleoside to which the gapmer is targeted in the human gene sequence. “Stop site” indicates the 3′-most nucleoside to which the gapmer is targeted in the human gene sequence.
Cultured HepaRG™ cells at a density of 20,000 cells per well were transfected using electroporation with 1,000 nM antisense oligonucleotide. After a treatment period of approximately 24 hours, RNA was isolated from the cells and PKK mRNA levels were measured by quantitative real-time PCR. Human primer probe set RTS3454 was used to measure mRNA levels. ISIS 531231 was also included in this assay. PKK mRNA levels were adjusted according to total RNA content, as measured by RIBOGREEN®. The antisense oligonucleotides were tested in a series of experiments that had similar culture conditions. Results are presented as percent inhibition of PKK, relative to untreated control cells.

For data set [2], the system named is human PKK mRNA. As to the kind of experiment: Antisense inhibition of human PKK mRNA in HepaRG cells, 5,000 nM (Example 2). The data set is classed as cell-based. An outline of the steps:
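HepaRG cells, 20,000 per well, were electroporated with 5,000 nM MOE gapmer (phosphorothioate, 5-methylcytosine) and incubated about 24 hours. PKK mRNA was quantified by qRT-PCR with primer probe set RTS3454, normalized to RIBOGREEN total RNA, and expressed as percent inhibition versus untreated controls.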

[3] abbreviates: Table 19, HepaRG cells, electroporation with 1,000 nM antisense oligonucleotide, approximately 24 hours, PKK mRNA by RT-PCR (RTS3454), relative to untreated control cells.
[4] abbreviates: HepaRG cells, electroporation with 1,000 nM antisense oligonucleotide, approx. 24 hours, PKK mRNA by RT-PCR (RTS3454), relative to untreated control cells, Table 25 experiment.
Setting [5] is: HepaRG cells, electroporation with 1,000 nM antisense oligonucleotide, approximately 24 hours, primer probe set RTS3454, relative to untreated control cells, experiment of Table 23.
The mark [6] stands for this setting: HepaRG cells, electroporation with 1,000 nM antisense oligonucleotide, approximately 24 hours, primer probe set RTS3454, relative to untreated control cells, experiment of Table 24.
[7] abbreviates: HepaRG cells, electroporation, 5,000 nM antisense oligonucleotide, approx. 24 hours, primer probe set RTS3454, relative to untreated control cells, Table 11.
Setting [8] is: HepaRG cells, 5,000 nM antisense oligonucleotide, 5-10-5 gapmers, Table 17.

Strand notation (5' to 3'): a small letter for the sugar, then the base; units joined by * are phosphorothioate-linked, units joined directly phosphodiester-linked; [ ] holds rarer units or linkages, { } end groups; capitals alone tell only the bases. e = 2'-O-(2-methoxyethyl) (MOE); k = constrained ethyl (cEt); [5mC] = 5-methylcytosine; d = 2'-deoxy (DNA)

A word on the % inhibition: it is the share of the control response that was lost under treatment. Lower therefore signals a response near the control. For “548649 (antisense eG*e[5mC]*k[5mC]*dT*d[5mC]*dT*d[5mC]*dA*dG*dA*d[5mC]*dG*dG*k[5mC]*kA*e[5mC]) [compound 548649]”, the “% inhibition” value in the data set with human PKK mRNA [1] (PKK mRNA, HepaRG cells, 1,000 nM antisense oligonucleotide, Table 31) is listed as 0%. Take “548105 (antisense e[5mC]*eA*kT*dG*dT*dA*d[5mC]*dT*d[5mC]*dA*dG*d[5mC]*dG*kA*k[5mC]*eT) [compound 548105]”: the “% inhibition” value in the data set with human PKK mRNA [1] (setting [3]) is reported as 49%. For the substance “548219 (eG*eA*kA*dA*dT*d[5mC]*d[5mC]*dT*dG*dT*dG*d[5mC]*dA*kT*kA*eG; antisense) [compound 548219]”, the “% inhibition” value in the data set with human PKK mRNA [1] (setting [4]) turned out to be 8%. As for “548165 (e[5mC]*eG*kA*d[5mC]*d[5mC]*dT*d[5mC]*dG*d[5mC]*dA*dT*dT*dG*kT*k[5mC]*eA; antisense) [compound 548165]”, in the data set with human PKK mRNA [1] (setting [4]), the “% inhibition” value came out at 53%. Turning to “548182 (eA*eG*kT*d[5mC]*dA*dT*dG*dG*dA*dG*dA*dT*d[5mC]*kT*k[5mC]*eA; antisense) [compound 548182]”, the “% inhibition” value in the data set on human PKK mRNA [1] (setting [4]) is recorded as 55%. Turning to “547933 (eT*e[5mC]*kG*dA*dT*dT*dT*dT*d[5mC]*d[5mC]*dA*dT*dA*k[5mC]*kA*eT; antisense) [compound 547933]”, the “% inhibition” value in the data set with human PKK mRNA [1] (setting [5]) was found to be 44%. For “547873 (antisense e[5mC]*eT*kG*d[5mC]*dT*dA*dA*d[5mC]*d[5mC]*dT*dT*dA*dG*kA*k[5mC]*eA) [compound 547873]”, the “% inhibition” value was 77% with human PKK mRNA [1] (Table 20, HepaRG cells, electroporation with 1,000 nM antisense oligonucleotide, approximately 24 hours, PKK mRNA by RT-PCR (RTS3454), relative to untreated control cells) and 82% with human PKK mRNA [1] (Table 22 experiment, HepaRG cells, electroporation with 1,000 nM antisense oligonucleotide, approx. 24 hours, PKK mRNA by RT-PCR (RTS3454), relative to untreated control cells). As for “548108 (antisense eG*eA*kG*d[5mC]*dT*dT*dT*dT*d[5mC]*d[5mC]*dA*dT*d[5mC]*kA*k[5mC]*eT) [compound 548108]”, in the data set with human PKK mRNA [1] (setting [3]), the “% inhibition” value amounted to 61%. Turning to “547950 (eG*eG*kT*dG*dT*dT*dT*dT*d[5mC]*dT*dT*dG*dA*kG*kG*eA; antisense) [compound 547950]”, in the data set on human PKK mRNA [1] (setting [5]), the “% inhibition” value was 49%. For “548003 (eT*eA*kA*d[5mC]*d[5mC]*dA*dG*dA*dG*d[5mC]*dT*d[5mC]*d[5mC]*k[5mC]*kT*eT; antisense) [compound 548003]”, the “% inhibition” value with human PKK mRNA [1] (setting [6]) worked out at 66%. With “548226 (eT*eA*kA*dG*dT*d[5mC]*dA*d[5mC]*d[5mC]*dA*dT*dA*dG*kA*k[5mC]*e[5mC]; antisense) [compound 548226]”, the “% inhibition” value with human PKK mRNA [1] (setting [4]) was found to be 39%. For the substance “548299 (e[5mC]*eA*kT*dT*dG*dT*dG*d[5mC]*dT*d[5mC]*dA*dA*d[5mC]*kT*kG*eA; antisense) [compound 548299]”, the “% inhibition” value in the data set on human PKK mRNA [1] (HepaRG cells, electroporation with 1,000 nM antisense oligonucleotide, approx. 24 hours, PKK mRNA by RT-PCR (RTS3454), relative to untreated control cells, Table 26 experiment) was found to be 35%. With “548051 (eA*eA*kG*dG*d[5mC]*dG*dA*dT*dA*dT*d[5mC]*dA*dT*kG*kA*eT; antisense) [compound 548051]”, the “% inhibition” value in the data set with human PKK mRNA [1] (setting [6]) is recorded as 61%. Take “547499 (antisense e[5mC]*eT*e[5mC]*eT*eG*dG*dA*d[5mC]*dT*dG*d[5mC]*dT*dT*d[5mC]*dT*e[5mC]*eA*eT*eG*e[5mC]) [compound 547499]”: in the data set with human PKK mRNA [2] (setting [7]), the “% inhibition” value was 65%. With “547630 (antisense eA*e[5mC]*eT*eG*eT*d[5mC]*d[5mC]*dT*dA*dT*dA*dT*d[5mC]*dA*d[5mC]*eT*e[5mC]*eT*eA*e[5mC]) [compound 547630]”, the “% inhibition” value with human PKK mRNA [2] (human PKK mRNA, HepaRG cells, 5-10-5 motif oligonucleotides targeting SEQ ID NO: 1 and 10) worked out at 76%. As for “546354 (antisense eG*eT*eA*e[5mC]*eT*d[5mC]*dA*dG*d[5mC]*dG*dA*d[5mC]*dT*dT*dT*eG*eG*eT*eG*eT) [compound 546354]”, the “% inhibition” value in the data set with human PKK mRNA [2] (setting [7]) is on record as 47%.

As to “547772 (antisense e[5mC]*eT*eG*eT*eG*d[5mC]*dT*d[5mC]*d[5mC]*d[5mC]*dG*dG*d[5mC]*d[5mC]*dA*eT*eT*eA*eG*e[5mC]) [compound 547772]”, the “% inhibition” value with human PKK mRNA [2] (setting [8]) was found to be 0%.

For the substance “548737 (DNA eA*e[5mC]*eT*eA*dG*dT*dT*dT*d[5mC]*d[5mC]*dT*dA*dT*eA*eA*e[5mC]*eT; antisense) [compound 548737]”, in the data set on human PKK mRNA [2] (human PKK mRNA, HepaRG cells, 5,000 nM antisense oligonucleotide, Table 18), the “% inhibition” value came out at 11%. On to “547081 (e[5mC]*eT*eG*eT*eA*dG*dT*d[5mC]*d[5mC]*dA*d[5mC]*dT*dA*d[5mC]*dA*e[5mC]*eA*eG*e[5mC]*eA; antisense) [compound 547081]”, for which the “% inhibition” value in the data set on human PKK mRNA [2] (setting [8]) is given as 83%.

These data come from US11840686B2, “Modulation of prekallikrein (PKK) expression” (Ionis Pharmaceuticals, Inc., priority 2013, dated 2023).
